Assay [1] in a line: Inhibition of human c-SRC expressed in mouse NIH/3T3 cells assessed as inhibition of cell growth in presence of 1.5% FCS by BrdU incorporation assay. (In general: Dividing cells build labelled thymidine or BrdU into new DNA.)
Assay [2] in a line: Inhibition of human c-SRC expressed in mouse NIH/3T3 cells assessed as inhibition of cell growth in presence of 0.5% FCS.

Broadly, the IC50 is the concentration that gives 50% inhibition. As for `O=C(Cc1ccc(-c2ccccc2)cn1)NCc1cccc(F)c1`, the IC50 in assay [1] came out at 269 nM.
In the case of `O=C(Cc1ccc(-c2ccc(OCCN3CCOCC3)cc2)cn1)NCc1cccc(F)c1`, the IC50 in assay [1] was found to be 118 nM.
For the molecule `O=C(Cc1ccc(-c2ccccc2)cc1)NCc1cccc(F)c1`, in assay [1], the IC50 was found to be 349 nM.
With `O=C(Cc1ccc(-c2ccc(OCCN3CCOCC3)cc2)cn1)NCc1ccccc1` [N-benzyl-2-(5-(4-(2-morpholinoethoxy)phenyl)pyridin-2-yl)acetamide], the concentration for half-maximal inhibition (IC50) came out at 6.5 nM in assay [2] and 13 nM in assay [1].

(Values after BindingDB's records for doi:10.1021/acs.jmedchem.8b00164 (Athenex, 2018).)
